# In paper PMC12456999, “Sulfonyl Homoserine Lactones Are Tunable Probes to Inhibit the Quorum Sensing Receptor RhlR and Reduce Swarming Motility in Pseudomonas aeruginosa” (ACS Infectious Diseases, 2025):
# Where two headings read alike, the source gives them in different places.
# Assays:
# RhlR = biological target: T1, RhlR (Pseudomonas aeruginosa, UniProt P54292); assay: P. aeruginosa PA14 ΔrhlIΔlasI RhlR GFP reporter antagonism assay; type: cell-based; settings: for Max Inhibition (RhlR): P. aeruginosa PA14 ΔrhlIΔlasI, against 4 μM BHL with 10 μM OdDHL, highest concentrations tested
# T1 construct: expressed in transfected cells; host or cells: E. coli JLD271 (K-12 ΔlacX74 sdiA271::Cam) carrying pJN105-R2 (RhlR expression) and pSC11-rhlI (rhlI'-lacZ reporter)
# Description: We were interested in determining whether these new RhlR antagonists identified in an E. coli RhlR reporter maintained their activity in the native organism, P. aeruginosa. […] Antagonism of RhlR was measured in the presence of BHL and OdDHL (the latter signal was needed to induce the production of RhlR via LasR). […] The reasons for this reduction in activity are likely multifold, but we believe that they may stem from the low permeability of P. aeruginosa to small molecules, its lower (native) level of RhlR expression, its abundance of efflux pumps, and/or the cross-interaction of compounds with other targets (LasR, QscR, and potentially others) that then regulate RhlR. […] Nevertheless, these reporter data for sulfonyl HLs 39, 43, 59, and 75 in P. aeruginosa indicate that these compounds are capable of antagonizing RhlR activity in the native host.
# RhlR activity in E. coli strain JLD271 (ΔsdiA) was measured via a β-galactosidase reporter (rhI-lacZ) using the Promega Beta-Glo Assay System as previously described. RhlR activity in P. aeruginosa PA14 (ΔrhlIΔlasI) was measured via a GFP reporter (rhlA-gfp). […] See Supporting Information for both reporter protocols.
# Supporting Information — Aguirre-Figueroa et al.
# P. aeruginosa RhlR reporter assay. RhlR activity in P. aeruginosa PA14 ΔrhlIΔlasI was measured via a GFP reporter. Briefly, a single colony of P. aeruginosa strain PA14 ΔrhlIΔlasI harboring the transcriptional fusion reporter pPROBE-GT rhlA-GFP (Table S1) was grown in LB medium with 40 μg/mL gentamicin overnight (~20 h). The culture was diluted 1:100 in fresh LB medium, without antibiotic, to an OD600 = 0.25 (0.22–0.30) (~1 h). Aliquots (2 μL) of compound DMSO stock solution or serial dilution were added to the inner wells (i.e., non-periphery rows) of a black, clear bottom 96-well plate. To 12 inner wells, DMSO alone (vehicle) was added to serve as controls (negative and positive). For the six negative control wells (no BHL), 198 μL of bacterial culture plus OdDHL (to achieve 10 μM) were added. For the six positive control wells (no test compound), 198 μL of bacterial culture plus OdDHL (10 μM) and BHL (to achieve 4 μM) were added. To all the remaining wells containing test compound, 198 μL of bacterial culture plus OdDHL (10 μM) and BHL (4 μM) were added. Water (200 μL) was added to the outer (periphery) wells to maintain humidity during incubation. Plates were incubated for 4 h at 37 °C. After incubation, the OD600 and GFP production (excitation at 500 nm, emission at 540 nm) were read for each well using a plate reader. To determine levels of RhlR activity, raw GFP production was divided by OD600 to correct for growth variation and then normalized to the negative (0%) and positive (100%) control wells.
# Dose-response reporter assay data for compounds in the P. aeruginosa RhlR reporter.
# Dose-response curves for RhlR agonism by BHL and for RhlR antagonism by selected compounds against 4 μM BHL using the P. aeruginosa PA14 RhlR reporter are provided below. Compound names are indicated on the x-axis of each plot. All assays performed in triplicate as at least three separate biological replicates. Error bars indicate SD of n = 3 trials. Curve fits generated using GraphPad Prism software (v9.0) using a variable slope sigmoidal curve fit. IC50 values for antagonists […]
# Max Inhibition = 47% Max Inhibition = 59%
# Max Inhibition = 49% Max Inhibition = 67%
# (also on this page, place not known: % Activity % Activity % Activity % Activity % Activity)
# bacterial growth = assay: Effect on bacterial growth (OD600 over time); type: cell-based; settings: at >2 mM concentrations
# Description: All new compounds were fully characterized for purity and identity (see Supporting Information). […] The remaining compounds had no effect on growth over the concentration range tested. All compounds were tested in bacteriological assays in triplicate and in at least three separate trials using unique cultures. IC50 and EC50 values in reporter assays were calculated using GraphPad Prism software (version 9.0) with a variable slope sigmoidal curve fit.
# T1 sequence (P54292 whole entry): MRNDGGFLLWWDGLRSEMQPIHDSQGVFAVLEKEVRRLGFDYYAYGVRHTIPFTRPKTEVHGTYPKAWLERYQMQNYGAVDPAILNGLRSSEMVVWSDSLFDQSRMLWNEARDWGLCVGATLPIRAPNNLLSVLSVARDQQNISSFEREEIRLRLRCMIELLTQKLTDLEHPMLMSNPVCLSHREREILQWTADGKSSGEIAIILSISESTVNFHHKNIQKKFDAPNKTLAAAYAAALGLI
Structure (SMILES),IC50 (RhlR) [µM],Max Inhibition (RhlR) (RhlR) [%],IC50 (RhlR; P. aeruginosa PA14 ΔrhlIΔlasI RhlR reporter) [µM],effect on bacterial growth (bacterial growth)
"O=C1OCC[C@@H]1NS(=O)(=O)c1ccc(F)c(F)c1 [Compound 59, 3,4-di-F BSHL]",> 1000,49,–,–
"CCCCCS(=O)(=O)N[C@H]1CCOC1=O [Compound 75, C5 ASHL]",–,67,> 1000,–
"O=C1OCC[C@@H]1NS(=O)(=O)c1ccc(Cl)c(Cl)c1 [Compound 43, 3,4-di-Cl BSHL]",> 1000,59,–,modest effect on bacterial growth
"O=C1OCC[C@@H]1NS(=O)(=O)c1cccc(Br)c1 [Compound 39, 3-bromo BSHL]",> 1000,47,–,modest effect on bacterial growth
